# Experimental data published in patent US6958345B2, “2-hydroxymethylcyclopropylidene methylpurines and -pyrimidines as antiviral agents” (The Regents of the University of Michigan, priority 1997, dated 2005).
# Read-outs that look alike come from different tables or passages of the source.
# Assays:
# HCMV = HCMV plaque reduction assay in HFF cells; type: cell-based, Human CMV (HCMV); settings: for IC50: HFF cells, plaque reduction; for activity against HCMV (in words): racemic analogues
# Procedure: (§1) Cells and viruses. The routine growth and passage of KB cells was performed in monolayer cultures using minimal essential medium (MEM) with either Hanks salts [MEM(H)] or Earle salts [MEM(E)] supplemented with 10% calf serum. The sodium bicarbonate concentration was varied to meet the buffering capacity required. Cultures of diploid human foreskin fibroblasts (HFF) or MRC-5 cells were grown in medium consisting of MEM(E) with 10% fetal bovine serum. Cells were passaged at 1:2 to 1:10 dilutions according to conventional procedures by using 0.05% trypsin plus 0.02% EDTA in a HEPES buffered salt solution (HBS) (Shipman, C., Jr., Proc. Soc. Exp. Biol. 130:305-310 (1969)) as described previously. Turk, S. R., et al., Antimicrob. Agents Chemother. 31:544-550 (1987). HFF and MRC-5 cells were passaged only at 1:2 dilutions. CEM cells were maintained in suspension culture as detailed previously. Kucera, L. S., et al., AIDS Res. Human Retroviruses 9:307-314 (1993).
# (§2) Virological procedures. Stock HCMV was prepared by infecting HFF cells at a multiplicity of infection (m.o.i.) of <0.01 plaque-forming units (p.f.u.) per cell. Cell growth medium was changed every four days until cytopathology was evident in all cells (approximately 21 days). Supernatant fluids were retained as the virus stock. High titer HSV-1 stocks were prepared by infecting KB cells at an m.o.i. of <0.1 as detailed previously. Turk, S. R., et al., Antimicrob. Agents Chemother. 31:544-550 (1987). Virus titers were determined using monolayer cultures of HFF cells for HCMV and monolayer cultures of BSC-1 cells for HSV-1 as described earlier. Prichard, M. N., et al., J. Virol. Methods 28:101-106 (1990). Briefly, HFF or BSC-1 cells were planted as described above in 96-well cluster dishes and incubated overnight at 37° C. in a humidified 3% CO297% air atmosphere. The next day cultures were inoculated with HCMV or HSV-1 and serially diluted 1:3 across the remaining eleven columns of the 96-well plate. Cultures were incubated at 37° C. for 2 hr to permit virus adsorption and then virus inoculum was replaced with 0.2 mL of fresh medium. Cultures were incubated for seven days for HCMV, two or three days for HSV-1, medium was removed, and the cell sheets were stained with 0.1% crystal violet in 20% methanol. Plaques were enumerated under 20-fold magnification in wells having the dilution which gave 5 to 20 plaques per well. Virus titers were calculated according to the following Formula: Titer (p.f.u./mL)=number of plaques×5×3^n; where n represents the nth dilution of the virus used to infect the well in which plaques were enumerated.
# (a) HCMV. The effect of compounds on the replication of HCMV has been measured using a plaque reduction assay. HFF cells in 24-well cluster dishes were infected with approximately 100 p.f.u. of HCMV per cm^2 cell sheet using the procedures detailed above. Following virus adsorption, compounds dissolved in growth medium were added to duplicate wells in three to six selected concentrations. Following incubation at 37° C. for 7 to 10 days, cell sheets were fixed, stained with crystal violet and microscopic plaques enumerated as described above. Drug effects were calculated as a percentage of reduction in number of plaques in the presence of each drug concentration compared to the number observed in the absence of drug. Ganciclovir (DHPG) was used as a positive control in all experiments.
# (§3) Data Analysis. Dose-response relationships were constructed by linearly regressing the percent inhibition of parameters derived in the preceding sections against log drug concentrations. Fifty-percent inhibitory (IC50) concentrations were calculated from the regression lines. Samples containing positive controls (acyclovir for HSV-1, ganciclovir for HCMV, and 2-acetylpyridine thiosemicarbazone for cytotoxicity) were used in all assays.
# HSV-1 = HSV-1 ELISA in BSC-1 cells; type: cell-based, herpes simplex 1 (HSV-1); settings: for IC50: ELISA
# Procedure: as §2
# (b) HSV-1. An enzyme-linked immunosorbent assay (ELISA) was employed to detect HSV-1. 96-well cluster dishes were planted with BSC-1 cells at 10,000 cells per well, in a total volume of 200 μL per well of MEM(E) plus 10% calf serum. After overnight incubation at 37° C., drug and HSV-1 was added at the rate of 100 PFU/well. ELISA plates were blocked with 200 μL per well of 10% calf serum and 0.05% tween in HBS. After incubation for 30 minutes, the blocking agent was rinsed two times with HBS-T. A 1:400 dilution of AP conjugated rabbit anti-HSV-1 antibody in HBS-F was added. Plates were sealed with adhesive sheet, and incubated on rocker for one hour at 37° C. Plates were developed in the dark with 100 μL per well of substrate solution containing p-nitrophenyl phosphate. Plates were read at […]. Drug effects were calculated as a percentage of the reduction in virus in the presence of each drug concentration compared to the titer obtained in the absence of drug. Acyclovir was used as a positive control in all experiments.
# as §3
# HIV-1 = HIV-1 reverse transcriptase assay in infected CEM cells; type: cell-based, strain IIIB of HIV-1
# Procedure: (d) HIV-1. Reverse transcriptase (RT) was employed as a marker for HIV-1. This assay measured the presence of HIV in supernatants of CEM cells infected with strain IIIB of HIV-1 by the amount of RT activity. Cells were grown, infected, and incubated in the presence of seven concentrations (one-half log10 dilutions) beginning at 1 or 100 μM of compounds to be assayed. Procedures and the RT assay were performed as detailed previously. Kucera, L. S., et al., AIDS Res. Human Retroviruses 9:307-314 (1993); White, E. L., et al., Antiviral Res. 16:257-266 (1991).
# HFF cells = experiment: Cytotoxicity in stationary HFF cells, microscopic inspection; type: cell-based, human
# Procedure: as §1
# (§4) Cytotoxicity assays. Two different assays were used to explore cytotoxicity of selected compounds as we have detailed previously. (i) Cytotoxicity produced in stationary HFF cells and in growing CEM cells was determined by microscopic inspection of cells used in plaque and RT assays which were not affected by the virus. Turk, S. R., et al., Antimicrob. Agents Chemother. 31:544-550 (1987). (ii) The effect of compounds during two population doublings of KB cells was determined by crystal violet staining and spectrophotometric quantitation of dye eluted from stained cells. Prichard, M. N., et al., Antimicrob. Agents Chemother. 35:1060-1065 (1991).
# as §3
# KB cells = experiment: Cytotoxicity in KB cells, growth over two population doublings; type: cell-based
# Procedure: as §1, §4, §3
# CEM cells = experiment: Cytotoxicity in growing CEM cells, microscopic inspection; type: cell-based
# Procedure: as §1, §4, §3
# [1] = Example 26, high multiplicity of infection (moi), read-out: HIV-1 IC50, reverse transcriptase assay
# [2] = reverse transcriptase assay, CEM cells, low moi (footnote c of the 5th table), read-out: HIV-1, IC50
# [3] = KB cell growth, read-out: Cytotoxicity IC50 KB (growth)
# [4] = Example 26, listed as R-1 (B = 2-amino-6-methoxy-purine), Example 22
# [5] = Example 26, listed as S-1 (B = 2-amino-6-methoxy-purine), Example 22
SMILES,IC50 (HCMV; Example 26),IC50 (HSV-1; Example 26),IC50 (HIV-1; [1]),IC50 (HFF cells),IC50 (KB cells),IC50 (CEM cells),also measured
"Nc1nc(Cl)c2ncn(C=C3CC3CO)c2n1 (stereo not shown) [S-1 (B = 2-amino-6-chloropurine), Example 22]",1.8 µM,45 µM,> 100 µM,> 100 µM,> 100 µM,> 100 µM,–
"Nc1nc2c(ncn2C=C2CC2CO)c(=O)[nH]1 (stereo not shown) [S-1 (B = guanine), Example 22]",2.5 µM,45 µM,> 100 µM,> 100 µM,> 100 µM,> 100 µM,–
COc1nc(N)nc2c1ncn2C=C1CC1CO (stereo not drawn) [syn-2-Amino-6-methoxy-N^9-(2-hydroxymethyl-cyclopropylidenemethyl)purine],3.1 µM,33 µM,> 100 µM,–,–,–,activity against HCMV (in words) (HCMV; Example 26): good activity; activity against HSV-1 (in words) (HSV-1; Example 26): significant activity
"COC(=O)[C@H](C)NP(=O)(OCC1CC1=Cn1cnc2c(N)ncnc21)Oc1ccccc1 (stereo partly drawn) [4 (B = adenine), Example 14, Methyl Phenylphosphoro-L-alaninate of anti-N^9-(2-Hydroxymethylcyclopropylidenemethyl)adenine]",–,–,–,–,–,–,"IC50 (HCMV): 21 µM; IC50 (HSV-1; BSC-1 cells): 65 µM; IC50 (HIV-1; [2]): 1.6 µM; IC50 (KB cells; [3]): 50 µM; IC50 (CEM cells; growing CEM cells, visual, read-out: Cytotoxicity IC50 CEM (visual)): 66 µM"
"Nc1nc(N)c2ncn(C=C3CC3CO)c2n1 (stereo not shown) [S-1 (B = 2,6-diaminopurine), Example 22]",21 µM,> 100 µM,> 100 µM,21 µM,> 100 µM,> 100 µM,–
"Nc1nc(N)c2ncn(C=C3CC3CO)c2n1 (stereo not shown) [R-1 (B = 2,6-diaminopurine), Example 22]",> 100 µM,> 100 µM,> 100 µM,> 100 µM,> 100 µM,> 100 µM,–
"Nc1ncnc2c1ncn2/C=C1/C[C@H]1CO [R-1 (B = adenine), Example 23, (R)-(−)-Synadenol]",2.9 µM,38 µM,7 µM,> 100 µM,> 100 µM,> 100 µM,–
COc1nc(N)nc2c1ncn2C=C1CC1CO (stereo not shown) [listing 1 of 2 here],–,–,–,> 100 µM,> 100 µM,> 100 µM,"IC50 (HCMV; [4]): > 100 µM; IC50 (HSV-1; [4]): > 100 µM; IC50 (HIV-1; Example 26, high multiplicity of infection (moi), listed as R-1 (B = 2-amino-6-methoxy-purine), Example 22, read-out: HIV-1 IC50, reverse transcriptase assay): > 100 µM"
[N-]=[N+]=Nc1nc(N)nc2c1ncn2C=C1CC1CO (stereo not drawn) [syn-2-Amino-6-azido-N^9-(2-hydroxymethyl-cyclopropylidene-methyl)purine],41 µM,> 100 µM,> 100 µM,> 100 µM,> 100 µM,> 100 µM,activity against HCMV (in words) (HCMV; Example 26): good activity
COc1nc(N)nc2c1ncn2C=C1CC1CO (stereo not shown) [listing 2 of 2 here],–,–,–,–,–,–,"IC50 (HCMV; [5]): 2.5 µM; IC50 (HSV-1; [5]): 20 µM; IC50 (HIV-1; Example 26, high multiplicity of infection (moi), listed as S-1 (B = 2-amino-6-methoxy-purine), Example 22, read-out: HIV-1 IC50, reverse transcriptase assay): 42 µM"
"Nc1nc(Cl)c2ncn(C=C3CC3CO)c2n1 (stereo not shown) [R-1 (B = 2-amino-6-chloropurine), Example 22]",30 µM,> 100 µM,> 100 µM,32 µM,> 100 µM,> 100 µM,–
"COC(=O)[C@H](C)NP(=O)(OCC1CC1=Cn1cnc2c(N)nc(N)nc21)Oc1ccccc1 (stereo partly drawn) [3 (B = 2,6-diaminopurine), Example 15, Methyl Phenylphosphoro-L-alaninate of syn-2,6-diamino-N^9-(2-Hydroxycyclopropylidene-methyl)purine]",–,–,–,–,–,–,"IC50 (HCMV): 4 µM; IC50 (HSV-1; BSC-1 cells): 50 µM; IC50 (HIV-1; [2]): 0.26 µM; IC50 (HFF cells; stationary HFF cells, visual, read-out: Cytotoxicity IC50 HFF (visual)): > 100 µM; IC50 (KB cells; [3]): 40 µM"
"Nc1ncnc2c1ncn2/C=C1/C[C@@H]1CO [S-1 (B = adenine), Example 24, (S)-(+)-Synadenol]",2.4 µM,8.8 µM,1.2 µM,100 µM,80 µM,> 100 µM,–
"Nc1nc(NC2CC2)c2ncn(C=C3CC3CO)c2n1 (stereo not shown) [S-1 (B = 2-aminopurine-6-cyclo-propylaminopurine), Example 2]",1.8 µM,20 µM,65 µM,> 100 µM,> 100 µM,> 100 µM,–
"Nc1nc2c(ncn2C=C2CC2CO)c(=O)[nH]1 (stereo not shown) [R-1 (B = guanine), Example 22]",> 100 µM,> 100 µM,> 100 µM,> 100 µM,> 100 µM,> 100 µM,–
"Nc1nc(NC2CC2)c2ncn(C=C3CC3CO)c2n1 (stereo not shown) [R-1 (B = 2-aminopurine-6-cyclo-propylaminopurine), Example 2]",> 100 µM,> 100 µM,> 100 µM,> 100 µM,> 100 µM,> 100 µM,–
